Results as given in ChEMBL document CHEMBL5154788 (Eur J Med Chem, 2022).
≈ marks a conversion by molar mass, not a printed value. Blank lines part the entries; values can stand above or below the compound they belong to.

Experiments:
[1] = molecular target: Transient receptor potential cation channel subfamily V member 1 (Homo sapiens, UniProt Q8NER1); experiment: Antagonist activity at human TRPV1 expressed in CHO cells assessed as inhibition of capsaicin-induced Ca2+ influx incubated for 30 mins by FLIPR method; assay type: cell-based
[2] = Toxicity in rat assessed as increase in body temperature at 30 mg/kg, po measured for 180 mins by electric probe thermometer analysis; assay type: organism-based; settings: in vivo, 3 h
[3] = Volume of distribution in Sprague-Dawley rat at 20 mg/kg, po measured after 12 hrs post dose by UPLC-QTOF/MS analysis; assay type: ADME, organism-based; settings: in vivo
[4] = AUC (0 to infinity) in Sprague-Dawley rat at 20 mg/kg, po by UPLC-QTOF/MS analysis; assay type: ADME, organism-based; set-up: time infinity, dose 20 mg/kg, route po; settings: in vivo
[5] = Elimination rate constant half life (k10) in Sprague-Dawley rat at 20 mg/kg, po measured after 12 hrs by UPLC-QTOF/MS analysis; assay type: ADME, organism-based; settings: in vivo, read-out: beta t1/2 (converted)
[6] = Oral bioavailability in Sprague-Dawley rat at 20 mg/kg measured after 12 hrs by UPLC-QTOF/MS analysis; assay type: ADME, organism-based; settings: in vivo
[7] = Half life in Sprague-Dawley rat at 10 mg/kg, iv measured after 12 hrs by UPLC-QTOF/MS analysis; assay type: ADME, organism-based; settings: in vivo
[8] = molecular target: Transient receptor potential cation channel subfamily A member 1 (Homo sapiens, UniProt O75762); experiment: Antagonist activity against human TRPA1 expressed in HEK293 cells assessed as inhibition of AITC-induced intracellular calcium accumulation incubated for 30 mins by FLIPR assay; assay type: cell-based
[9] = Clearance in Sprague-Dawley rat at 20 mg/kg, po measured after 12 hrs by UPLC-QTOF/MS analysis; assay type: ADME, organism-based; settings: in vivo
[10] = Drug concentration in rat plasma at 10 mg/kg, iv measured after 0.5 hrs by HPLC analysis; assay type: ADME, organism-based
[11] = Cmax in Sprague-Dawley rat at 20 mg/kg, po measured after 12 hrs by UPLC-QTOF/MS analysis; assay type: ADME, organism-based; set-up: dose 20 mg/kg, time 12 hrs, route po; settings: in vivo
[12] = Elimination rate constant (K10) in Sprague-Dawley rat at 10 mg/kg, iv measured after 12 hrs by UPLC-QTOF/MS analysis; assay type: ADME, organism-based; settings: in vivo
[13] = Aqueous solubility of compound at pH 7.4 incubated for 2 hrs by LC-UV/MS analysis; assay type: physicochemical; settings: buffer
[14] = Ratio of drug level in brain to plasma in rat at 10 mg/kg, iv measured after 0.5 hrs by HPLC analysis; assay type: ADME, organism-based; settings: read-out: BPR
[15] = Tmax in Sprague-Dawley rat at 20 mg/kg, po measured after 12 hrs by UPLC-QTOF/MS analysis; assay type: ADME, organism-based; settings: in vivo
[16] = MRT in Sprague-Dawley rat at 10 mg/kg, iv measured after 12 hrs by UPLC-QTOF/MS analysis; assay type: ADME, organism-based; settings: in vivo
[17] = Drug concentration in rat brain at 10 mg/kg, iv measured after 0.5 hrs by HPLC analysis; assay type: ADME, organism-based; settings: read-out: Ct
[18] = Toxicity in rat assessed as effect on body temperature at 10 to 100 mg/kg, po measured for 120 mins by electric probe thermometer analysis; assay type: organism-based; settings: in vivo, 2 h, dose 10-100 mg/kg
[19] = Clearance in Sprague-Dawley rat at 10 mg/kg, iv measured after 12 hrs by UPLC-QTOF/MS analysis; assay type: ADME, organism-based; settings: in vivo
[20] = molecular target: T1, Transient receptor potential cation channel subfamily V member 3 (Homo sapiens, UniProt Q8NET8); experiment: Antagonist activity against human TRPV3 expressed in HEK293 cells assessed as inhibition of 2-APb induced intracellular calcium accumulation incubated for 30 mins by FLIPR assay; assay type: cell-based
T1 sequence (Q8NET8 whole entry): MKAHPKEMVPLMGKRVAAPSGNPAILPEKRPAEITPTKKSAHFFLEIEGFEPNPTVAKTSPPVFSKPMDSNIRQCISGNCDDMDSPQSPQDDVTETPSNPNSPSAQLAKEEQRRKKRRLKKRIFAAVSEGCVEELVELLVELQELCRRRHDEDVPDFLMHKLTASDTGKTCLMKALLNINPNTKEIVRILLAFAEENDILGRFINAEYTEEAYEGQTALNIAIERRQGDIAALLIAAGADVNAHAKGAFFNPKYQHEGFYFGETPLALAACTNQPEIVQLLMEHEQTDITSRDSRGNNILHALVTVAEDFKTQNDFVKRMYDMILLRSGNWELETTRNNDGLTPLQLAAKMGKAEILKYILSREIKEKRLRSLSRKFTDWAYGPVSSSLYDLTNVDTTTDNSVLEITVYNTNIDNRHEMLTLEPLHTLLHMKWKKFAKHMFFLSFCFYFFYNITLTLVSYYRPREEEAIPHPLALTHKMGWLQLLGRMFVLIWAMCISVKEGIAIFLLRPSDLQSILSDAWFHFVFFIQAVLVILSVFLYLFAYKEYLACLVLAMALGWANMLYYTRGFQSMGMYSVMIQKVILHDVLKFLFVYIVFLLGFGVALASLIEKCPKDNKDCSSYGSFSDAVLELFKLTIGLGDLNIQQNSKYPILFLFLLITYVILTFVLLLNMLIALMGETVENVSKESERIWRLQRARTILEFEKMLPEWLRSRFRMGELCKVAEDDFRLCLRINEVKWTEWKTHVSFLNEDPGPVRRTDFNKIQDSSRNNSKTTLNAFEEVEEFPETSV

[21] = Elimination rate constant (K10) in Sprague-Dawley rat at 20 mg/kg, po measured after 12 hrs by UPLC-QTOF/MS analysis; assay type: ADME, organism-based; settings: in vivo
[22] = MRT in Sprague-Dawley rat at 20 mg/kg, po measured after 12 hrs by UPLC-QTOF/MS analysis; assay type: ADME, organism-based; settings: in vivo
[23] = AUC (0 to infinity) in Sprague-Dawley rat at 10 mg/kg, iv by UPLC-QTOF/MS analysis; assay type: ADME, organism-based; set-up: time infinity, dose 10 mg/kg, route iv; settings: in vivo
[24] = molecular target: Transient receptor potential cation channel subfamily M member 8 (Homo sapiens, UniProt Q7Z2W7); experiment: Antagonist activity against human TRPM8 expressed in HEK293 cells assessed as inhibition of […]-gated currents by whole cell patch clamp electrophysiology; assay type: cell-based
Transient receptor potential cation channel subfamily M member 8, sequence (Q7Z2W7 whole entry): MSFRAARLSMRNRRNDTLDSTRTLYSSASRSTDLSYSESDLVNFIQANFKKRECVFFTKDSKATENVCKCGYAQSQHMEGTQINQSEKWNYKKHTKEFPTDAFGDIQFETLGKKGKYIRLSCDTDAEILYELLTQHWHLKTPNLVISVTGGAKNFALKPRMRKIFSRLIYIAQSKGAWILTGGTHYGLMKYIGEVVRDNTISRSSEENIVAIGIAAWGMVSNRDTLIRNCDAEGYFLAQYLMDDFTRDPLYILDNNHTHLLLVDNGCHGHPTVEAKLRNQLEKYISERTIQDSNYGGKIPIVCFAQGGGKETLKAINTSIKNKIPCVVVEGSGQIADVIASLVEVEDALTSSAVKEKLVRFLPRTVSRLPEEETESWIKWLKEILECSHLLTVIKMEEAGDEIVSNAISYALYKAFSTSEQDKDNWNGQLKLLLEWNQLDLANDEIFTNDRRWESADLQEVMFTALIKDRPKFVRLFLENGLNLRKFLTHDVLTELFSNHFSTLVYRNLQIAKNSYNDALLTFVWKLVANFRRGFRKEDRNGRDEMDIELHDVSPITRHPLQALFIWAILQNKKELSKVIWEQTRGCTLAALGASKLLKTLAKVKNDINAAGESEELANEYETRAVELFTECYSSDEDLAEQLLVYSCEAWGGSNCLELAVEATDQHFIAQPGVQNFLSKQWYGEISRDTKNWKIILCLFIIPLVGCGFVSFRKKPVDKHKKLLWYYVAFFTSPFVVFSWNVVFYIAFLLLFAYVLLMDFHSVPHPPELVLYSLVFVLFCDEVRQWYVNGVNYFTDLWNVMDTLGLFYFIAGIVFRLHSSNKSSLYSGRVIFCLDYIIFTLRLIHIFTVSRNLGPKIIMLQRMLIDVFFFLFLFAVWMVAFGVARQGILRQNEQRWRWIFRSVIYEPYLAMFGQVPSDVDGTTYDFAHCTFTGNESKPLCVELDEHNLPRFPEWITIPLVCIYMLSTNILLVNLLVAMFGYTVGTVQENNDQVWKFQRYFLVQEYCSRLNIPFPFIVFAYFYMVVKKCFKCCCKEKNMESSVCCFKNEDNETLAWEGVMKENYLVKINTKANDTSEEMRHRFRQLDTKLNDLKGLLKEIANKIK

Transient receptor potential cation channel subfamily V member 1, sequence (Q8NER1 whole entry): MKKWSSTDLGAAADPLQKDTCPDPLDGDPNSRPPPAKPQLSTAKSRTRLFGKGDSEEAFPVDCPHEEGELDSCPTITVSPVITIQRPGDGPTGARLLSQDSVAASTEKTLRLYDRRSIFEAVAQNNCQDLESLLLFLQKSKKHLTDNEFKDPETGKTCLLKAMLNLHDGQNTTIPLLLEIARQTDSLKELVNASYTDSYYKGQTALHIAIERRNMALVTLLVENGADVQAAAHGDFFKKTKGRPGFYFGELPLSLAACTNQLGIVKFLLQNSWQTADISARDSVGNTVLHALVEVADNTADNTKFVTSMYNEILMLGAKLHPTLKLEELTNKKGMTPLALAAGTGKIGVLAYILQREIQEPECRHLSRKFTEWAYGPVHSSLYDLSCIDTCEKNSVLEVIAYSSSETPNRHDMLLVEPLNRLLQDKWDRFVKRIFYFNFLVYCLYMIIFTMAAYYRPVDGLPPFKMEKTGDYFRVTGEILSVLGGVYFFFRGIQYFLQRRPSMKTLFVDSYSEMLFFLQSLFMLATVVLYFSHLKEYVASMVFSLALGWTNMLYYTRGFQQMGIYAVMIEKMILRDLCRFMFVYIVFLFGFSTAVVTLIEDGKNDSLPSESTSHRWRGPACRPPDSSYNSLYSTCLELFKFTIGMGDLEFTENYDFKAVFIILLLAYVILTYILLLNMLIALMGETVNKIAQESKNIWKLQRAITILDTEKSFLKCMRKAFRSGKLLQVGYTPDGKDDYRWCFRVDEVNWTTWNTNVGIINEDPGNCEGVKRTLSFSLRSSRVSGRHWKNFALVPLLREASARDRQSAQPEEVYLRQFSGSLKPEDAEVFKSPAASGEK
Transient receptor potential cation channel subfamily A member 1, sequence (O75762 whole entry): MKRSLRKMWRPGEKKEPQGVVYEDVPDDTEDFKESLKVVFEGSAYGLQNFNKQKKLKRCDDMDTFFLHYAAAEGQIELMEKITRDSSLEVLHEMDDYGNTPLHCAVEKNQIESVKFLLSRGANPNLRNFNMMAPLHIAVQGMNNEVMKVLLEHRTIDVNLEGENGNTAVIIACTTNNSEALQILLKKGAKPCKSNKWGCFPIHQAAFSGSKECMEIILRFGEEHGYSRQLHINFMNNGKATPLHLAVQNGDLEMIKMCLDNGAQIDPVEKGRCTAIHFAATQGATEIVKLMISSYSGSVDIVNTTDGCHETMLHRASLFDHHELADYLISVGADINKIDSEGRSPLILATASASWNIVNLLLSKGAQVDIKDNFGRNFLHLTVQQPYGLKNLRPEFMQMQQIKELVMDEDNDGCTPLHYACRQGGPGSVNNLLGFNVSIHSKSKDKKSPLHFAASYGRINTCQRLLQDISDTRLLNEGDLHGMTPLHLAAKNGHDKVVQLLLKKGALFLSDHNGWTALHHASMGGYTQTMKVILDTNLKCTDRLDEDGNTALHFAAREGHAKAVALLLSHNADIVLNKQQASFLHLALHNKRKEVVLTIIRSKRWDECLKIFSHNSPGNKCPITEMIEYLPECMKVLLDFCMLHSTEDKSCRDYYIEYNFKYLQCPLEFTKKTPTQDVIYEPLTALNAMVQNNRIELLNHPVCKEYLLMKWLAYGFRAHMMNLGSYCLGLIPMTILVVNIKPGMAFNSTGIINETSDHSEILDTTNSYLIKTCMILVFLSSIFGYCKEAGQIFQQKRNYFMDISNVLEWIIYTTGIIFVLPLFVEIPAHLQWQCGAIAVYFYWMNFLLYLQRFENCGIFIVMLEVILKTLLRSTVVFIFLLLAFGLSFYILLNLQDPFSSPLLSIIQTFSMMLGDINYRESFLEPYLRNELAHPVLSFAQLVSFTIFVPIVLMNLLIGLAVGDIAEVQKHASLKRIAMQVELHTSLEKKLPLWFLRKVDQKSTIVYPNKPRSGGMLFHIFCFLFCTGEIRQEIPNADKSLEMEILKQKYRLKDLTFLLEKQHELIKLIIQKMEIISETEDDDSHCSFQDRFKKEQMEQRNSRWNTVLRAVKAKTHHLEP

IC50 [1]: 10.7 nM
Structure (SMILES): O=C(Nc1ccc(Cl)cc1)N1CCC[C@H]1c1nc(-c2ccc(F)cc2)cs1

IC50 [1]: 5.71 nM
Structure (SMILES): COc1ccccc1NC(=O)N1CCC[C@H]1c1nc(-c2ccc(F)cc2)cs1
Activity [2]: Toxic

IC50 [1]: 23.9 nM
Structure (SMILES): Cc1ccc(NC(=O)N2CCC[C@H]2c2ncc(-c3ccccc3)s2)c([N+](=O)[O-])c1

IC50 [1]: 80.6 nM
Structure (SMILES): O=C(Nc1cccc2cnccc12)N1CCC[C@H]1c1nc(-c2cccc(F)c2)cs1

IC50 [1]: 12.4 nM
Structure (SMILES): O=C(Nc1ccccc1[N+](=O)[O-])N1CCC[C@H]1c1ncc(-c2ccccc2)s1

IC50 [1]: 24.3 nM
Structure (SMILES): O=C(Nc1cccc2cnccc12)N1CCC[C@H]1c1nc(-c2ccc(F)cc2)cs1

IC50 [1]: 31.6 nM
Structure (SMILES): O=C(Nc1ccc(F)cc1)N1CCC[C@H]1c1nc(-c2ccccc2)cs1

IC50 [1]: 44.4 nM
Structure (SMILES): Cc1ccc(C)c(NC(=O)N2CCC[C@H]2c2nc(-c3ccccc3)cs2)c1

IC50 [8]: > 100000 nM
concentration at 0.5 h [10]: 1400 ng/g
solubility at 2 h [13]: 26 µg/mL (≈ 66.4 µM)
Kp at 0.5 h [14]: 1.66
concentration at 0.5 h [17]: 2310 ng/g
IC50 [1]: 2.66 nM
IC50 [20]: > 100000 nM
Structure (SMILES): CC(C)c1cccc(NC(=O)N2CCC[C@H]2c2ncc(-c3ccccc3)s2)c1
Vd [3]: 16 L/kg
AUC [4]: 598.873 ng·h/mL
half-life [5]: 31.6 min
bioavailability [6]: 60%
half-life [7]: 6.36 min
clearance [9]: 367 mL/min/kg
Cmax [11]: 311 ng/mL
k el at 12 h [12]: 0.00335 s⁻¹
Tmax [15]: 42.7 min
MRT [16]: 9.18 min
Activity [2]: Non-Toxic
Activity [18]: Non-Toxic
clearance [19]: 400 mL/min/kg
k el at 12 h [21]: 0.000315 s⁻¹
MRT [22]: 85.6 min
AUC [23]: 495.955 ng·h/mL

IC50 [1]: 5.32 nM
Structure (SMILES): CC(C)c1ccccc1NC(=O)N1CCC[C@H]1c1ncc(-c2ccccc2)s1

IC50 [1]: 67.6 nM
Structure (SMILES): O=C(Nc1cccc2cnccc12)N1CCC[C@H]1c1nc(-c2ccccc2)cs1

IC50 [1]: 24.6 nM
Structure (SMILES): O=C(Nc1ccc(F)cc1)N1CCC[C@H]1c1nc(-c2ccc(F)cc2)cs1

Kp at 0.5 h [14]: 0.5
IC50 [1]: 9.24 nM
IC50 [24]: 1600 nM
Structure (SMILES): O=C(Nc1ccccc1Br)N[C@@H]1CCN(c2ccc(C(F)(F)F)cn2)C1 [SB-705498]
Activity [2]: Non-Toxic
